Experimental data as given in PMC3954793, “SHP-2 Binds to Caveolin-1 and Regulates Src Activity via Competitive Inhibition of CSK in Response to H2O2 in Astrocytes” (PLoS ONE, 2014).
“Also recorded” adds a separate entry of the source. Values belong to the compound of their own block, whether it stands above or below them. Ends that are not written are not given here.

What was measured:
[1] = tested on: Src (Tyr 419 phosphorylation); assay: Immunoblot of p-Src Y419; type: cell-based, human; details: CRT-MG cells; PTPi IV 0–10 µM, 30 min; 5 mM H2O2, 10 min; n = 3
Procedure: (§1) Cells were plated and transfected with green fluorescence protein (GFP) siRNA (Samchully Pharm Co. Ltd., Seoul, Korea) as a control group and human CSK siRNA and human SHP-2 siRNA from Bioneer (Daejeon, Korea) using Lipofectamine RNAiMAX (Invitrogen, Carlsbad, CA, USA) according to the manufacturer’s instructions to achieve a final concentration of 300 nM.
(§2) Figure 7 SHP-2 and CSK reciprocally regulate H2O2-induced Src activation. […] Tubulin was evaluated as a loading control. Bottom panel, Densitometric quantification of p-Src Y419 levels (empty bars) and p-Src Y530 levels (filled bars), normalized to the level of total Src. Results are expressed as percentage of H2O2-treated values in control siRNA presented as mean ± SD. (*p<0.05 vs. H2O2-treated cells transfected with control siRNA; #p<0.05 between SHP-2 siRNA-transfected cells and CSK siRNA-transfected cells; n = 3). (B) Inhibition of SHP-2 by PTPi IV attenuated the H2O2-induced activation of the Src signaling pathway. CRT-MG cells were treated with 5 mM H2O2 or not for 10 min in the presence of 5 or 10 µM PTPi IV for 30 min, and lysed in cold-RIPA buffer. Antibodies against p-SHP-2, SHP-2, p-Src, Src, p-FAK, FAK, p-ERK, ERK, and tubulin were used for immunoblotting. Bottom panel, Densitometric quantification of p-Src Y419 levels (empty bars) and p-Src Y530 levels (filled bars), normalized to the level of total Src. […] (p, phospho).

[2] = tested on: Src (Tyr 530 phosphorylation); assay: Immunoblot of p-Src Y530; type: cell-based, human; details: CRT-MG cells; PTPi IV 0–10 µM, 30 min; 5 mM H2O2, 10 min; n = 3
Procedure: as §1, §2

[3] = tested on: ERK phosphorylation; assay: Immunoblot of p-ERK; type: cell-based, human; details: CRT-MG cells; PTPi IV 5 or 10 µM, 30 min; 5 mM H2O2, 10 min
Procedure: as §1, §2

[4] = tested on: FAK phosphorylation; assay: Immunoblot of p-FAK; type: cell-based, human; details: CRT-MG cells; PTPi IV 5 or 10 µM, 30 min; 5 mM H2O2, 10 min
Procedure: as §2

[5] = tested on: SHP-2 (Y542 and Y580 phosphorylation); assay: Immunoblot of p-SHP-2 Y542 and Y580; type: cell-based, human; details: CRT-MG cells; PTPi IV 5 or 10 µM, 30 min; 5 mM H2O2, 10 min
Procedure: as §2

[6] = biological target: T1, recombinant GST-SHP-2 (Homo sapiens, UniProt Q06124); assay: Surface plasmon resonance, rGST-SHP-2; type: binding
T1 construct: purchased Abnova (Taipei, Taiwan)
T1 sequence (Q06124 1-593): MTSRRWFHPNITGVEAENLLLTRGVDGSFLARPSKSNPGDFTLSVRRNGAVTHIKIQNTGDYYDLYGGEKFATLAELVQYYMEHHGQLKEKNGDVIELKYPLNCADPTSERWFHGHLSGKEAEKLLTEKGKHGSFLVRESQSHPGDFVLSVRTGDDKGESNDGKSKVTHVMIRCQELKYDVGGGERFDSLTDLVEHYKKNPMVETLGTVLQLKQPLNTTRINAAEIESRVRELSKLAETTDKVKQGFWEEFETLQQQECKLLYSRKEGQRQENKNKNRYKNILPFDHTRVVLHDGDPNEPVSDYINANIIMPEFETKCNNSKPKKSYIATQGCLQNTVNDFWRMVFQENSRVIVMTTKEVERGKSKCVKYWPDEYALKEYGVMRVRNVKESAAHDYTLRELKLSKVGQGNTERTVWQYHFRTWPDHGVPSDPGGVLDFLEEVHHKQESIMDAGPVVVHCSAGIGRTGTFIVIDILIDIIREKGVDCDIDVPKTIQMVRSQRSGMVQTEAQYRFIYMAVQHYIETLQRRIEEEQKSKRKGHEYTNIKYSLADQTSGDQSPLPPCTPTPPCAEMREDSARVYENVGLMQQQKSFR
Procedure: (§3) SPR was performed on a SPRmicro system (K-MAC, Daejeon, Korea). A G1 chip (bare surface gold chip) was dipped into a 3 mM N-hydroxylsuccinimide self-assembled monolayer to form covalent bonds among protein amine groups. After washing with ethanol, the chip was purged with N2 gas. Recombinant GST-SHP-2 or GST-CSK was mixed with 20% ethylene glycol and then spotted onto the chip. Ligands were reacted on room temperature for 12 h to allow the ligands to become fixed onto the chip. After the reaction, the […] by washing with 1×Tris-buffered saline (TBS), and purged with N2 gas. SPR signal baselines were stabilized using 1×TBS running buffer, and different dilutions of caveolin-1 phosphopeptides (Cav-1 pY 14, GHL-pY-TVPIREQGN) in buffer were injected at a flow rate of 20 µL/min. Response unit (RU) alterations following sample reactions were analyzed by comparing affinities to the chip surface. Experiments were conducted by switching from samples immobilized on the chip (Cav-1 pY 14) to injected samples (rGST-CSK or rGST-SHP-2). […] Equilibrium binding curves and RU values are shown.
(§4) Figure 5 SPR and flow cytometric analyses of SHP-2 and CSK binding to phosphorylated-Tyr peptides of caveolin-1. […] After stringent wash, bound SHP-2 or CSK to caveolin-1 peptide conjugated beads were measured by Accuri C6 flow cytometer.

[7] = tested on: recombinant GST-CSK; assay: Surface plasmon resonance, rGST-CSK; type: binding; details: rGST-CSK immobilized on G1 chip; peptide 10 to 1,000 µg/mL injected, 20 µL/min, 1×TBS; repeated twice
Procedure: as §3, §4

[8] = tested on: CSK binding to p-caveolin-1 peptide; assay: Flow cytometric competitive binding assay (bound CSK on p-caveolin-1 peptide conjugated beads); design: species or system human; details: 10 µg recombinant CSK with SHP-2 protein 1–100 µg; flow cytometry; repeated twice
Procedure: (§5) Human SHP-2 and CSK fusion constructs were produced by consecutively subcloning the protein coding regions of SHP-2 and CSK into the pGEX-6P-1 vector (GE healthcare, Piscataway, NJ, USA). Using these constructs, human SHP-2 and CSK were overexpressed in Escherichia coli (BL21) as soluble. Briefly, the transformed bacteria were grown in LB medium with 0.1 mg/ml ampicillin at 37°C to an A600 of 0.6, and then cultured for an additional overnight at 27°C after being induced with 0.5 mM IPTG (Duchefa Biochemie, Netherlands). The cells were harvested by centrifugation at 8000 g for 20 min, resuspended in PBS pH 7.4, and then disrupted by ultrasonication. The supernatant was purified with glutathione agarose 4B (Incospharm, Daejeon, South Korea) in PBS pH 7.4. The bound proteins were eluted with a linear gradient 10 mM glutathione in 50 mM Tris (pH 8.0). All proteins were concentrated with a Centricon apparatus (Miliipore, Darmstadt, Germany). Proteins were quantitated with the Bradford assay, then filtered and stored at −70°C until use. […]
Figure 6 Small interfering RNA targeting CSK facilitates H2O2-mediated binding between caveolin-1 and SHP-2. […] Fluorescent intensities were measured by Accuri C6 flow cytometer.

[9] = tested on: recombinant SHP-2 protein; assay: Bead-based flow cytometric binding assay, SHP-2; design: species or system human; details: caveolin-1 (1–50 a.a.) peptide on carboxyl beads; SHP-2 protein 1–10 µg, 1 h, RT; flow cytometry; repeated twice
Procedure: as §5, §4

[10] = tested on: recombinant CSK protein; assay: Bead-based flow cytometric binding assay, CSK; design: species or system human; details: caveolin-1 (1–50 a.a.) peptide on carboxyl beads; CSK protein 1–10 µg, 1 h, RT; flow cytometry; repeated twice
Procedure: as §5, §4

Compound: CC(C)(c1ccc(NS(=O)(=O)C(F)(F)F)cc1)c1ccc(C(C)(C)c2ccc(NS(=O)(=O)C(F)(F)F)cc2)cc1 [PTPi IV]
H2O2-mediated phosphorylation of Src at Tyr 419 [1]: dose-dependent decrease | H2O2-mediated phosphorylation of Src at Tyr 530 [2]: no significant change | ERK phosphorylation [3]: strongly inhibited; also recorded: reduced | FAK phosphorylation [4]: strongly inhibited; also recorded: reduced | SHP-2 phosphorylation at Y542 and Y580 [5]: significantly reduced

SPR binding affinity ([6]; rGST-SHP-2 immobilized on G1 chip, peptide 10 to 1,000 µg/mL injected, 20 µL/min, 1×TBS, repeated twice): high affinity | SPR binding affinity [7]: high affinity
Compound: GHL-pY-TVPIREQGN [Cav-1 pY 14, synthetic peptide phosphorylated at a Tyr residue corresponding to Tyr 14 of caveolin-1]
difference in kinetic rates or RUs, rGST-SHP-2 versus rGST-CSK ([6]; rGST-SHP-2 compared with rGST-CSK, immobilized on G1 chip, peptide 10 to 1,000 µg/mL): no significant difference in their kinetic rates or RUs

Compound: SHP-2 protein: human SHP-2 overexpressed in Escherichia coli (BL21) from pGEX-6P-1, glutathione agarose purified
amount of bound CSK on p-caveolin-1 peptide conjugated beads [8]: reduced by adding increasing concentrations of SHP-2 protein

binding of SHP-2 to peptide conjugated beads [9]: significantly bound | binding of CSK to peptide conjugated beads [10]: significantly bound
Compound: p-caveolin-1 peptide: Fifty-amino acid-long synthetic peptides of caveolin-1 (1–50 a.a.) conjugated to carboxyl beads using EDC (MSGGKYVDSEGHLYTVPIREQGNIYKPNNKAMADELSEKQVYDAHTKEID; also: phosphorylated, sites not given here; UniProt Q03135 1-50, looked up, fragment)
